Data reported in US20170209499A1, “Propolis and Extracts Thereof for the Treatment of Skin Cancers and Improvement of Skin Health” (Manuka Health New Zealand Limited, priority 2014, published 2017).

Tested on: human epidermoid cancer cell line A-431
Assay: MTT cell proliferation assay, human epidermoid (squamous) carcinoma cell line A-431
Type: cell-based
Details: for Mean OD: MTT Optical Density at 570 nm
Method: The three human skin cancer cell lines were: • 1) Human Melanoma cell line (A-2058). • 2) Human Epidermoid (Squamous) Carcinoma cell line (A-431). • 3) Human Basal Cell Carcinoma cell line (TE 354.T).
The cell lines were revived from cryostorage and cultured in the presence of the test and reference samples. An MIT assay was then performed on the cultures to determine the effect of the samples on the cell viability and proliferation. The percentage standard error of the mean was assessed and extreme outliers were removed if the SEM%>15. Preliminary statistical significance was assessed with an independent Student t-test at α<0.05 (with and without outliers). The methodology was based on the procedures reported by: • Ahn, N G, Campbell J S (1993). […] Proc Natl Acad Sci. 90: 5143-5147. • Galan-Cobo, A et al (2014). Functional inhibition of aquaporin-3 with a gold-based compound induces blockage of cell proliferation. J Cellul. Physiol. 229: 1787-1801. • Roomi, M W, Kalinovsky, J et al (2013) Effect of a nutrient mixture on matrix metalloproteinase-9 dimers in various human cancer cell lines. Inter 3 Oncol. 44: 936-942. • Huang, H C, Lin, M K et al (2013). Cardenolides and bufadienolide glycosides from Kalanchoe tubiflora and evaluation of cytotoxicity. Planta Medica. 79: 1362-1369. • Tilli, C M L J, Stavast-Kooy, A J W et al (2003). The garlic-derived organosulfur component ajoene decreases basal cell carcinoma tumor size by inducing apoptosis. Arch Dermatol Res. 295: 117-123.
• 1. Human melanoma cell line (A-2058, ATCC CRL11147) was obtained from ATCC, Bethesda, Md., USA. • 2. Human squamous (epidermoid) carcinoma cell line (A-431, ATCC CRL1555) was obtained from ATCC, Bethesda, Md. USA. • 3. Human basal cell carcinoma cell line (TE 354.T, ATCC CRL7762) was obtained from ATCC, Bethesda, Md., USA. • 4. Dulbecco's Modified Eagle's Medium (DMEM) was obtained from GIBCO (12100-038). 10% Foetal Bovine Serum (FBS), 100 U/ml Penicillin and […] Streptomycin were added before use. • 5. Penicillin-streptomycin solution, stored at −20° C. consisting of 10000 units/ml penicillin and 10 mg/ml streptomycin in 0.9% NaCl was obtained from Sigma (#P-0781). • 6. Trypsin-EDTA solution consisting of 0.25% Trypsin/EDTA was obtained from Invitrogen (#15400054). • 7. Phosphate buffered saline (PBS) was prepared in-house. • 8. Hanks Balanced Salt Solution (HBSS), stored at 4° C. was obtained from GIBCO (#14185-052). • 9. Foetal Bovine Serum (FBS) stored at −20° C. was obtained from GIBCO (#10091-148). • 10. MTT Reagent, 100 mg/vial, was obtained from Sigma (M-2128) and then dissolved in PBS at 10 mg/ml and stored at −20° C. A 5 mg/ml MTT solution was prepared in PBS and stored at 4° C. as the working solution. • 11. MU lysis buffer: 10% sodium dodecyl sulphate (SDS)/45% Dimethyl Formamide was prepared by dissolving 20 g SDS in 100 ml of double-distilled water (DDW), and then adding 90 ml of Dimethyl Formamide to the solution. The pH was adjusted to 4.7 by glacial acetic acid, and DDW added up to a final volume of 200 ml. • 12. 5-Fluorouracil (5-FU) was supplied by Sigma (F-6627). Three working solutions were prepared at 19.5 μg/ml. 6.5 μg/ml and 1.95 μg/ml dissolved in 15% Ethanol/HBSS. Final concentrations were 1.95 μg/ml (15 μM), 0.65 μg/ml (5 μM) and 0.195 μg/ml (1.5 μM).
• 1. Each of the cell lines was revived from cryostorage. • 2. Following initial propagation using the media described above (Characterisation of Test System, and Medium Preparation), the cell culture was subcultured using trypsin-EDTA. The media was removed and 5ml of the trypsin-EDTA solution added and incubated at 37° C. for 5 min or until all the cells had detached. The trypsin was neutralised by the addition of an equal volume of the relevant medium and centrifugation of the suspension at 300 g (1200 rpm) for 5 min at 4° C. • 3. […]

## O=c1[nH]cc(F)c(=O)[nH]1 [5-fluorouracil, reference compound]
A-431, 0.195 μg/ml, 24 hr incubation, vs cells only
  % inhibition: weak and statistically insignificant inhibitor
A-431, 0.195 μg/ml
  Mean OD: 0.2364
A-431, 0.65 μg/ml, 24 hr incubation, vs cells only
  % inhibition: weak and statistically insignificant inhibitor
A-431, 0.65 μg/ml
  Mean OD: 0.2416
A-431, 1.95 μg/ml, 24 hr incubation, vs cells only
  % inhibition: weak and statistically insignificant inhibitor
A-431, 1.95 μg/ml
  Mean OD: 0.2561
Homo sapiens, A-431, 0.195 μg/ml, 24 hr incubation, vs cells only
  inhibition at 0.195 µg/mL: 9.79%
Homo sapiens, A-431, 0.65 μg/ml, 24 hr incubation, vs cells only
  inhibition at 0.65 µg/mL: 7.8%
Homo sapiens, A-431, 1.95 μg/ml, 24 hr incubation, vs cells only
  inhibition at 1.95 µg/mL: 2.26%
